Earlier results in patent US11813289B2, “Encapsulated antimicrobials and related methods of treatment” (ADVANTAGE SILVER DENTAL ARREST, LLC, priority 2018, dated 2023).

Test system: dentinal caries lesions
Conditions: lesions that had progressed into the dentin

## silver diamine fluoride [SDF]
  dentinal caries lesions arrested after treatment: two-thirds
